Here are results for three compounds from patent publication US4714711A, “6-hydroxy-2(2-hydroxy-4-methoxyphenyl)benzofuran derivatives to inhibit leukotriene biosynthesis” (Merck & Co., Inc., priority 1986, dated 1987).

Values after ≈ are worked out from the molar mass of the structure shown.

In one experiment the test system is leukotriene C4. Nature of the experiment: Inhibition of CXBG leukotriene production (A23187-stimulated, enzyme immunoassay). It is filed as cell-based, mice. Particulars: Mus musculus; CXBG cells, 2×10^6 cells/ml, inhibitor 5 minutes at 37°, A23187 stimulation 10 minutes; read-out: IC50 (μg/ml) LTC4. The protocol: (§1) Representative compounds of Formula I have been tested using the following assay to determine their mammalian leukotriene biosynthesis inhibiting activity and other relevant activities:
(§2) CXBG cells grown intraperitoneally in CB4 B6 /F1 /J mice were washed 5 times in Dulbeccos phosphate buffered saline without calcium or magnesium, suspended in medium 199 (Gibco) at 2×10^6 cells/ml, and incubated 15 minutes at 37°. Inhibitor solutions in methanol were incubated with the cells (10μl/600 μl cells), for 5 minutes at 37°, and the cells were stimulated with 60 μl A23187 (50 μg/ml) for 10 minutes at 37°. Aliquots were removed for measurement of leukotriene C4 or thromboxane B2 by enzyme immunoassay as previously reported (D. K. Miller, et al., J. Immunological Methods, 81, 169-185, 1985). The percentage inhibition was calculated by the following: [formula]

The test system of the next experiment is thromboxane B2. The experiment in a line: Inhibition of CXBG prostoglandin (thromboxane B2) production (A23187-stimulated, enzyme immunoassay). Format: cell-based, mice. Particulars: Mus musculus; CXBG cells, 2×10^6 cells/ml, inhibitor 5 minutes at 37°, A23187 stimulation 10 minutes; read-out: IC50 (μg/ml) Tx B2. The protocol:
as §1, §2

Take `COc1ccc(-c2cc3cc(O)ccc3o2)c(O)c1` [5-hydroxy-2-(2-hydroxy-4-methoxyphenyl)benzofuran]: the IC50 in the experiment with leukotriene C4 came out at 0.75 µg/mL (≈ 2.93 µM); with thromboxane B2, 0.5 µg/mL (≈ 1.95 µM).
Consider `COc1cc(O)ccc1-c1cc2ccc(O)cc2o1` [6-hydroxy-2-(2-methoxy-4-hydroxyphenyl)benzofuran], for which the IC50 with leukotriene C4 worked out at 0.028 µg/mL (≈ 0.109 µM); in the experiment with thromboxane B2, 1 µg/mL (≈ 3.9 µM).
On to `COc1ccc(-c2cc3ccc(O)cc3o2)c(O)c1` [6-hydroxy-2-(hydroxy-4-methoxyphenyl)benzofuran], for which the IC50 with leukotriene C4 was found to be 0.013 µg/mL (≈ 0.0507 µM); with thromboxane B2 it was 0.3 µg/mL (≈ 1.17 µM).
